Assay results reported in the NIST ThermoML archive (doi:10.1016/j.jct.2012.03.029).
± gives the expanded uncertainty stated by the source.

Experiment: mn = molality of the nth substance listed, in mol/kg
Settings: 101 kPa, Liquid, m1 = 0.01; for speed of sound: Sing-around technique in a fixed-path interferometer; for mass density: Vibrating tube method

OC[C@H]1O[C@@H]2O[C@H]3[C@H](O)[C@@H](O)[C@@H](O[C@H]4[C@H](O)[C@@H](O)[C@@H](O[C@H]5[C@H](O)[C@@H](O)[C@@H](O[C@H]6[C@H](O)[C@@H](O)[C@@H](O[C@H]7[C@H](O)[C@@H](O)[C@@H](O[C@H]8[C@H](O)[C@@H](O)[C@@H](O[C@H]1[C@H](O)[C@H]2O)O[C@@H]8CO)O[C@@H]7CO)O[C@@H]6CO)O[C@@H]5CO)O[C@@H]4CO)O[C@@H]3CO [β-cyclodextrin] + O
Settings	mass density [kg/m3]	speed of sound [m/s]
293.15 K	1001.93 ± 2	1484.4 ± 1.2
298.15 K	1000.75 ± 2	1498.5 ± 0.91
303.15 K	999.217 ± 2	1510.9 ± 0.88
308.15 K	997.709 ± 2	1521.5 ± 1.2
